Each compound was assayed against T1, full length active recombinant SYK enzyme (Homo sapiens, UniProt P43405) (assay: Inhibition of Syk tyrosine phosphorylation activity (LANCE TR-FRET kinase assay)). Conditions: activity in the Syk assays, class symbols.
T1 construct: full length active recombinant SYK enzyme (Millipore, Calif.); purchased Millipore
Type: biochemical
Procedure, shortened: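 1 nM full-length active recombinant SYK phosphorylated 550 nM biotin-DEEDYESP-OH with 100 μM ATP in 50 mM Tris pH 7.5, 5 mM MgCl2, 1 mM DTT and 3% DMSO for 1 h at room temperature. After EDTA quench, Eu-anti-phosphotyrosine/SA-APC TR-FRET was read after 1 h. IC50s came from non-linear regression.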

Compound | IC50
NC(=O)c1ncc(N[C@@H]2CCCC[C@@H]2N)nc1Nc1ccc(-c2ncco2)cc1 [Example 445, 5-(((1R,2S)-2-aminocyclohexyl)amino)-3-((4-(oxazol-2-yl)phenyl)amino)pyrazine-2-carboxamide] | 1 to 10 nM
CC[C@@H](Nc1cnc(C(N)=O)c(Nc2ccc(-c3ncco3)cc2)n1)C(N)=O [Example 446] | 1 to 10 nM
NC(=O)c1ncc(N[C@@H]2CCCC(F)(F)[C@@H]2N)nc1Nc1cnn2ccccc12 [Example 447, 5-(((1R,2R)-2-amino-3,3-difluorocyclohexyl)amino)-3-(pyrazolo[1,5-a]pyridin-3-ylamino)pyrazine-2-carboxamide] | 1 to 10 nM
NC(=O)c1ncc(N[C@@H]2CCCC(F)(F)[C@@H]2N)nc1Nc1csc2ncccc12 [Example 448, 5-(((1R,2R)-2-amino-3,3-difluorocyclohexyl)amino)-3-(thieno[2,3-b]pyridin-3-ylamino)pyrazine-2-carboxamide] | 1 to 10 nM
NC(=O)c1ncc(N[C@@H]2CCCC[C@@H]2N)nc1Nc1cncs1 [Example 449, 5-(((1R,2S)-2-aminocyclohexyl)amino)-3-(thiazol-5-ylamino)pyrazine-2-carboxamide] | > 1000 nM
CC[C@@H](Nc1cnc(C(N)=O)c(Nc2cccc(-c3ncco3)c2)n1)C(N)=O [Example 450, (R)-5-((1-amino-1-oxobutan-2-yl)amino)-3-((3-(oxazol-2-yl)phenyl)amino)pyrazine-2-carboxamide] | 10 to 100 nM
NC(=O)c1ncc(N[C@@H]2CCCC(F)(F)[C@@H]2N)nc1Nc1ccc2c(c1)COCC2 [Example 451, 5-(((1R,2R)-2-amino-3,3-difluorocyclohexyl)amino)-3-(isochroman-7-ylamino)pyrazine-2-carboxamide] | 1 to 10 nM
NC(=O)c1ncc(N[C@@H]2CCCC(F)(F)[C@@H]2N)nc1Nc1ccc2c(c1)COC2 [Example 452, 5-(((1R,2R)-2-amino-3,3-difluorocyclohexyl)amino)-3-((1,3-dihydroisobenzofuran-5-yl)amino)pyrazine-2-carboxamide] | 1 to 10 nM
NC(=O)c1ncc(N[C@@H]2CCCC(F)(F)[C@@H]2N)nc1Nc1ccc2c(c1)CCOC2 [Example 453, 5-(((1R,2R)-2-amino-3,3-difluorocyclohexyl)amino)-3-(isochroman-6-ylamino)pyrazine-2-carboxamide] | 1 to 10 nM
NC(=O)c1ncc(N[C@@H]2CCCC(F)(F)[C@@H]2N)nc1Nc1ccc2c(c1)CCC2 [Example 454, 5-(((1R,2R)-2-amino-3,3-difluorocyclohexyl)amino)-3-((2,3-dihydro-1H-inden-5-yl)amino)pyrazine-2-carboxamide] | 10 to 100 nM
